Measured values published in patent US11884627B2, “Compounds and compositions for treating conditions associated with LPA receptor activity” (Lhotse Bio, Inc., priority 2022, dated 2024).
pIC50: −log10 of the molar value.

Key:
[1] = target: T1, human LPA1 (Homo sapiens, UniProt Q92633); assay: In vitro LPA1 calcium flux antagonist assay - Bioduro protocol; assay type: cell-based; details: CHO-K1 cells overexpressing human LPA1 and G15a, LPA challenge at EC80
T1 construct: expressed in transfected cells; host or cells: CHO-K1
T1 sequence (Q92633 whole entry): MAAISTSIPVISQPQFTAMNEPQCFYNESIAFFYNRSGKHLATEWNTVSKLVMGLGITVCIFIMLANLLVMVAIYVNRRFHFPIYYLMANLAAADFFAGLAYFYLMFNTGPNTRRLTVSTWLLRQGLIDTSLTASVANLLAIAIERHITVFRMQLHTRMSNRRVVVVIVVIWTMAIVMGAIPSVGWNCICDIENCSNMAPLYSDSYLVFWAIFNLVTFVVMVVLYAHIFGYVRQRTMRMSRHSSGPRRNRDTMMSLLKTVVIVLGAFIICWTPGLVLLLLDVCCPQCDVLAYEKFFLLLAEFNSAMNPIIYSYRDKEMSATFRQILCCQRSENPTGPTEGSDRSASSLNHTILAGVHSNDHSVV
In short: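 CHO-K1 cells overexpressing human LPA1 and G15a, serum-starved 4 h, loaded with Fluo-8 AM plus 2.5 mM probenecid in HBSS/20 mM Hepes for 30 min at 37 °C. Compound preincubated 30 min, then LPA challenge at EC80; FLIPR calcium signal, % inhibition relative to DMSO and LPA controls.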

[2] = target: T1, human LPA1; assay: In vitro LPA1 functional antagonist assay (calcium mobilization, FLIPR); assay type: cell-based; details: CHO-K1 cells overexpressing human LPA1, Oleoyl LPA challenge at EC80
Method: In Vitro LPA1 Functional Antagonist Assay
CHO-K1 cells overexpressing human LPA1 were seeded in a total volume of 20 μL into black-walled, clear-bottom. Poly-D-lysine coated 384-well microplates and incubated at 37° C., for the appropriate time prior to testing. Assays were performed in 1× Dye Loading Buffer consisting of 1× Dye, 1× Additive A and 2.5 mM Probenecid in HBSS/20 mM Hepes. Probenicid was prepared fresh. Cells were loaded with dye prior to testing. Media was aspirated from cells and replaced with 20 μL Dye Loading Buffer. Cells were incubated for 30-60 minutes at 37° C. After dye loading, cells were removed from the incubator and 10 μL 3× test compound was added. Cells were incubated for 30 minutes at room temperature in the dark to equilibrate plate temperature followed by Oleoyl LPA challenge at EC80. Compound antagonist activity was measured on a FLIPR Tetra (MSD). Calcium mobilization was monitored for 2 minutes and 10 μL Oleoyl LPA in HBSS/20 mM Hepes was added to the cells 5 seconds into the assay. For LPA EC80 determination, after dye loading, cells were removed from the incubator and 10 μL HBSS/20 mM Hepes was added. 3× vehicle was included in the buffer. Cells were incubated for 30 minutes at room temperature in the dark to equilibrate plate temperature. Intermediate dilution of LPA stocks was performed to generate 4×LPA samples in assay buffer. LPA agonist activity was measured on a FLIPR Tetra (MSD). Calcium mobilization was monitored for 2 minutes and 10 μL 4×LPA sample in HBSS/20 mM Hepes was added to the cells 5 seconds into the assay. Compound activity was analyzed using CBIS data analysis suite (ChemInnovation, CA). Percentage inhibition is calculated using the following formula: % Inhibition=100%×(1−(mean RFU of test sample−mean RFU of vehicle control)/(mean RFU of LPA control−mean RFU of vehicle control)).
Table B1 and Table B2 show the biological activity of compounds in in vitro LPA1 functional antagonist assay. Activity of the tested compounds provided in Table B1 is as follows: +++=IC50<1 μM; ++=IC50 1 μM−10 μM; +=IC50>10 μM.

[3] = calcium mobilization on FLIPR Tetra, read-out: IC50
[4] = Table B3, read-out: Activity (IC50 class)

Structure (SMILES)	pIC50 [1, 3]	pIC50 [1, 4]	pIC50 ([2]; Table B1, read-out: Activity (IC50 class))	pIC50 ([2]; Table B2, read-out: IC50)
COc1cc(-c2ccc(NC3(C(=O)O)CC3)cc2COC2Cc3ccccc3C2)cc(OC)c1C [Compound 109, 1-((2-(((2,3-dihydro-1H-inden-2-yl)oxy)methyl)-3′,5′-dimethoxy-4′-methyl-[1,1′-biphenyl]-4-yl)amino)cyclopropane-1-carboxylic acid]	7.03	> 7.00	> 6.00	8.57
COc1cc(-c2ccc(NC3(C(=O)O)CCOCC3)cc2COC2CC2)c(F)c(OC)c1C [Compound 256, 4-((2-(cyclopropoxymethyl)-2′-fluoro-3′,5′-dimethoxy-4′-methyl-[1,1′-biphenyl]-4-yl)amino)tetrahydro-2H-pyran-4-carboxylic acid]	7.78	> 7.00		7.99
CCOc1c(C)ccc(-c2ccc(NC3(C(=O)O)CCOCC3)cc2COC2CCCC2)c1C [Compound 280]	8.09	> 7.00		7.73
COc1cc(-c2ccc(NC3(C(=O)O)CCOCC3)cc2COC2CCCC2)c(C(F)F)c(OC)n1 [Compound 283]	7.94	> 7.00		7.96
CCCOc1cccc(-c2ccc(NC3(C(=O)O)CCOCC3)cc2COC2CCCC2)c1F [Compound 284]	7.92	> 7.00		8.40
Cc1c(OC2CC2)cccc1-c1ccc(NC2(C(=O)O)CCOCC2)cc1COC1CCCC1 [Compound 285]	7.86	> 7.00		8.18
Cc1c(OC2CC2)cccc1-c1ccc(NC2(C(=O)O)CCOCC2)cc1COC1CC1 [Compound 294, 4-((3′-cyclopropoxy-2-(cyclopropoxymethyl)-2′-methyl-[1,1′-biphenyl]-4-yl)amino)tetrahydro-2H-pyran-4-carboxylic acid]	8.23	> 7.00		8.15
CCOc1cccc(-c2ccc(NC3(C(=O)O)CCOCC3)cc2COC2CC2)c1Cl [Compound 295, 4-((2′-chloro-2-(cyclopropoxymethyl)-3′-ethoxy-[1,1′-biphenyl]-4-yl)amino)tetrahydro-2H-pyran-4-carboxylic acid]	8.48	> 7.00		8.10
CCOc1cc(OC)cc(-c2ccc(NC3(C(=O)O)CCOCC3)cc2CCC2CC2)c1F [Compound 298]	9.12	> 7.00		8.58
CCOc1cccc(-c2ccc(NC3(C(=O)O)CCOCC3)cc2COC2CC2)c1C [Compound 355, 4-((2-(cyclopropoxymethyl)-3′-ethoxy-2′-methyl-[1,1′-biphenyl]-4-yl)amino)tetrahydro-2H-pyran-4-carboxylic acid]	8.52	> 7.00		8.12
